Data: patent US10633397B2, “Substituted polycyclic pyridone derivatives and prodrugs thereof” (priority 2015, dated 2020)

How the values were obtained:
[1] = molecular target: cap-dependent endonuclease (RNP fraction, PB1-PB2-PA complex) (Influenza A virus, UniProt P15659); assay: Measurement of cap-dependant endonuclease (CEN) inhibitory activity; format: biochemical; conditions: RNP from A/WSN/33 virus, room temperature 60 minutes; read-out: CEN_IC50
[2] = test system: influenza virus; assay: CPE inhibitory effect confirming assay; format: cell-based; conditions: unidentified influenza virus, 72 h, read-out: CPE_EC50

C[C@H]1CN2C(=O)c3c(O)c(=O)ccn3N([C@H]3c4ccc(F)cc4CSc4ccccc43)[C@@H]2CO1 [III-52]
IC50 [1]: 3.62 nM | EC50 [2]: 3.28 nM

CC1(C)CCN2C(=O)c3c(O)c(=O)ccn3N([C@@H]3c4ccccc4SCc4cccc(F)c43)[C@@H]2C1 [III-45]
IC50 [1]: 1.63 nM | EC50 [2]: 3.07 nM

O=C1c2c(O)c(=O)ccn2N([C@@H]2c3ccccc3SCc3c2ccc(F)c3F)[C@@H]2C[C@H](C(F)(F)F)CCN12 [III-38]
IC50 [1]: 8.26 nM | EC50 [2]: 4.04 nM

O=C1c2c(O)c(=O)ccn2N([C@@H]2c3ccccc3SCc3c2ccc(F)c3F)[C@@H]2CCCCN12 [III-59]
IC50 [1]: 0.57 nM | EC50 [2]: 3.11 nM

O=C1c2c(O)c(=O)ccn2N([C@@H]2c3cccc(Cl)c3SCc3cccc(F)c32)[C@@H]2COCCN12 [III-16]
IC50 [1]: 4.33 nM | EC50 [2]: 10.2 nM

O=C1c2c(O)c(=O)ccn2N([C@H]2c3ccc(F)cc3CSc3ccccc32)[C@@H]2CC(F)(F)CCN12 [III-46]
IC50 [1]: 2.91 nM | EC50 [2]: 3.18 nM

C[C@@H]1CC[C@@H]2N(C1)C(=O)c1c(O)c(=O)ccn1N2[C@@H]1c2ccccc2SCc2c1ccc(F)c2F [III-42]
IC50 [1]: 3.93 nM | EC50 [2]: 2.64 nM

O=C1c2c(O)c(=O)ccn2N([C@H]2c3cc(F)ccc3CSc3ccccc32)[C@@H]2COCCN12 [III-14]
IC50 [1]: 15 nM | EC50 [2]: 15.7 nM

O=C1c2c(O)c(=O)ccn2N([C@@H]2c3ccccc3SCc3cccc(O)c32)[C@@H]2COCCN12 [III-24]
IC50 [1]: 13.3 nM | EC50 [2]: 24.1 nM

O=C1c2c(O)c(=O)ccn2N([C@@H]2c3ccccc3SCc3c2cccc3C(F)(F)F)[C@@H]2COCCN12 [III-17]
IC50 [1]: 3.89 nM | EC50 [2]: 8.14 nM

C[C@H]1COC[C@@H]2N1C(=O)c1c(O)c(=O)ccn1N2[C@@H]1c2cccc(F)c2SCc2cccc(F)c21 [III-28]
IC50 [1]: 10.7 nM | EC50 [2]: 5.67 nM

O=C1c2c(O)c(=O)ccn2N([C@H]2c3ccccc3CSc3ccccc32)[C@@H]2CCCCN12 [III-25]
IC50 [1]: 2.96 nM | EC50 [2]: 2.35 nM

O=C1c2c(O)c(=O)ccn2N([C@H]2c3ccc(F)cc3CSc3ccccc32)[C@@H]2C[C@@H](C(F)(F)F)CCN12 [III-57]
IC50 [1]: 4.27 nM | EC50 [2]: 3.47 nM

C[C@H]1COC[C@@H]2N1C(=O)c1c(O)c(=O)ccn1N2[C@@H]1c2ccccc2SCc2cccc(F)c21 [III-31]
IC50 [1]: 18.5 nM | EC50 [2]: 3.17 nM

C[C@H]1COC[C@@H]2N1C(=O)c1c(O)c(=O)ccn1N2[C@H]1c2ccc(F)cc2CSc2ccccc21 [III-30]
EC50 [2]: 3.01 nM

O=C1c2c(O)c(=O)ccn2N([C@@H]2c3ccccc3SCc3c2ccc(F)c3F)[C@@H]2C[C@@H](C(F)(F)F)CCN12 [III-26]
IC50 [1]: 1.63 nM | EC50 [2]: 3 nM

O=C1c2c(O)c(=O)ccn2N([C@@H]2c3ccccc3SCc3c(F)cccc32)[C@@H]2COCCN12 [III-19]
EC50 [2]: 1.43 nM

O=C1c2c(O)c(=O)ccn2N([C@@H]2c3ccccc3SCc3c2ccc(F)c3F)[C@@H]2CSCCN12 [III-9]
IC50 [1]: 2.17 nM | EC50 [2]: 10.9 nM

O=C1c2c(O)c(=O)ccn2N([C@@H]2c3cccc(F)c3SCc3cccc(F)c32)[C@@H]2COCCN12 [III-13]
IC50 [1]: 3.94 nM | EC50 [2]: 4 nM

O=C1c2c(O)c(=O)ccn2N([C@@H]2c3ccccc3SCc3c2ccc(F)c3F)[C@@H]2CO[C@H](C(F)(F)F)CN12 [III-37]
IC50 [1]: 4.24 nM | EC50 [2]: 3.43 nM

CC1(C)CCN2C(=O)c3c(O)c(=O)ccn3N([C@H]3c4ccc(F)cc4CSc4ccccc43)[C@@H]2C1 [III-47]
IC50 [1]: 2.25 nM | EC50 [2]: 2.53 nM

O=C1c2c(O)c(=O)ccn2N([C@@H]2c3ccccc3SCc3c2ccc(F)c3F)[C@@H]2CC3(CCN12)COC3 [III-29]
IC50 [1]: 0.87 nM | EC50 [2]: 0.66 nM

O=C1c2c(O)c(=O)ccn2N([C@H]2c3cc(F)c(F)cc3CSc3ccccc32)[C@@H]2COCCN12 [III-12]
IC50 [1]: 2.18 nM | EC50 [2]: 3.38 nM

O=C1c2c(O)c(=O)ccn2N([C@@H]2c3ccccc3SCc3c(F)cc(F)cc32)[C@@H]2COCCN12 [III-11]
IC50 [1]: 13.1 nM | EC50 [2]: 9.98 nM

O=C1c2c(O)c(=O)ccn2N([C@@H]2c3ccccc3SCc3c2ccc(F)c3F)[C@@H]2CCC(F)(F)CN12 [III-34]
IC50 [1]: 4.69 nM | EC50 [2]: 2.85 nM

O=C1c2c(O)c(=O)ccn2N([C@H]2c3ccccc3CSc3ccccc32)[C@@H]2CC3(CCN12)OCCO3 [III-7]
IC50 [1]: 8.09 nM | EC50 [2]: 11.5 nM

O=C1c2c(O)c(=O)ccn2N([C@@H]2c3ccccc3SCc3c2ccc(F)c3F)[C@@H]2CC3(CCOCC3)CCN12 [III-23]
IC50 [1]: 1.48 nM | EC50 [2]: 0.86 nM

C[C@H]1COC[C@@H]2N1C(=O)c1c(O)c(=O)ccn1N2[C@H]1c2ccccc2CSc2ccccc21 [III-32]
IC50 [1]: 27.6 nM | EC50 [2]: 7.23 nM

O=C1c2c(O)c(=O)ccn2N([C@H]2c3ccc(F)cc3CSc3ccccc32)[C@@H]2CCCCN12 [III-54]
EC50 [2]: 1.18 nM

O=C1c2c(O)c(=O)ccn2N([C@H]2c3cc(Cl)ccc3CSc3ccccc32)[C@@H]2COCCN12 [III-15]
IC50 [1]: 37.3 nM | EC50 [2]: 16.9 nM

O=C1c2c(O)c(=O)ccn2N([C@@H]2c3ccccc3SCc3cccc(F)c32)[C@@H]2CCCCN12 [III-53]
IC50 [1]: 2.46 nM | EC50 [2]: 3 nM

O=C1c2c(O)c(=O)ccn2N([C@@H]2c3ccccc3SCc3c2ccc(F)c3F)[C@@H]2CC3(CCN12)CC3 [III-36]
EC50 [2]: 2.45 nM

O=C1c2c(O)c(=O)ccn2N([C@@H]2c3ccccc3SCc3c(Cl)cccc32)[C@@H]2COCCN12 [III-4]
IC50 [1]: 2.81 nM | EC50 [2]: 2.08 nM

CC1(C)CCN2C(=O)c3c(O)c(=O)ccn3N([C@@H]3c4ccccc4SCc4c3ccc(F)c4F)[C@@H]2C1 [III-33]
EC50 [2]: 2.36 nM

O=C1c2c(O)c(=O)ccn2N([C@@H]2c3ccccc3SCc3cccc(F)c32)[C@@H]2CC(F)(F)CCN12 [III-44]
IC50 [1]: 3.81 nM | EC50 [2]: 3.68 nM

O=C1c2c(O)c(=O)ccn2N([C@@H]2c3ccccc3SCc3cccc(F)c32)[C@@H]2COCCN12 [III-10]
IC50 [1]: 4.05 nM | EC50 [2]: 3.46 nM

O=C1c2c(O)c(=O)ccn2N([C@H]2c3ccc(F)cc3CSc3ccccc32)[C@@H]2CC3(CCN12)CC3 [III-55]
IC50 [1]: 2.13 nM | EC50 [2]: 3.45 nM

O=C1c2c(O)c(=O)ccn2N([C@@H]2c3ccccc3SCc3cccc(Cl)c32)[C@@H]2COCCN12 [III-20]
EC50 [2]: 4 nM

O=C1c2c(O)c(=O)ccn2N([C@H]2c3ccc(F)cc3CSc3ccccc32)[C@@H]2C[C@H](C(F)(F)F)CCN12 [III-43]
IC50 [1]: 3.9 nM | EC50 [2]: 3.18 nM

C[C@@H]1CCN2C(=O)c3c(O)c(=O)ccn3N([C@@H]3c4ccccc4SCc4c3ccc(F)c4F)[C@@H]2C1 [III-41]
IC50 [1]: 2.1 nM | EC50 [2]: 2.17 nM

CO[C@@H]1CCN2C(=O)c3c(O)c(=O)ccn3N([C@@H]3c4ccccc4SCc4c3ccc(F)c4F)[C@@H]2C1 [III-39]
IC50 [1]: 2.75 nM | EC50 [2]: 2.81 nM

C[C@H]1CC[C@@H]2N(C1)C(=O)c1c(O)c(=O)ccn1N2[C@@H]1c2ccccc2SCc2c1ccc(F)c2F [III-40]
IC50 [1]: 2.99 nM | EC50 [2]: 2.95 nM

CC1(C)CC[C@@H]2N(C1)C(=O)c1c(O)c(=O)ccn1N2[C@@H]1c2ccccc2SCc2c1ccc(F)c2F [III-35]
IC50 [1]: 3.86 nM | EC50 [2]: 3 nM

O=C1c2c(O)c(=O)ccn2N([C@@H]2c3ccccc3SCc3c2cccc3C(F)(F)F)[C@@H]2CCCCN12 [III-27]
IC50 [1]: 4.19 nM | EC50 [2]: 3.61 nM

Cc1cccc2c1[C@H](N1[C@@H]3COCCN3C(=O)c3c(O)c(=O)ccn31)c1ccccc1SC2 [III-18]
EC50 [2]: 3.28 nM

O=C1c2c(O)c(=O)ccn2N([C@H]2c3ccc(F)cc3CSc3ccccc32)[C@@H]2COCCN12 [III-3]
IC50 [1]: 2.22 nM | EC50 [2]: 3.39 nM

O=C1c2c(O)c(=O)ccn2N([C@@H]2c3ccccc3SCc3c2ccc(F)c3F)[C@@H]2CC(F)(F)CCN12 [III-21]
IC50 [1]: 4.06 nM | EC50 [2]: 2.7 nM

O=C1c2c(O)c(=O)ccn2N(C2c3ccccc3CCc3ccccc32)[C@@H]2COCCN12 [III-56]
IC50 [1]: 6.64 nM | EC50 [2]: 4.99 nM

O=C1c2c(O)c(=O)ccn2N([C@H]2c3ccccc3CSc3ccccc32)[C@@H]2CCOCCN12 [III-8]
IC50 [1]: 2.81 nM | EC50 [2]: 7.18 nM

C[C@H]1CN2C(=O)c3c(O)c(=O)ccn3N([C@@H]3c4ccccc4SCc4c3ccc(F)c4F)[C@@H]2CO1 [III-51]
IC50 [1]: 2.22 nM | EC50 [2]: 2.58 nM

O=C1c2c(O)c(=O)ccn2N([C@H]2c3ccccc3CSc3ccccc32)[C@@H]2CSCCN12 [III-5]
IC50 [1]: 10.8 nM | EC50 [2]: 4.28 nM

C[C@@H]1CCN2C(=O)c3c(O)c(=O)ccn3N([C@H]3c4ccc(F)cc4CSc4ccccc43)[C@@H]2C1 [III-50]
IC50 [1]: 2.55 nM | EC50 [2]: 4.36 nM

C[C@@H]1CCN2C(=O)c3c(O)c(=O)ccn3N([C@@H]3c4ccccc4SCc4cccc(F)c43)[C@@H]2C1 [III-49]
IC50 [1]: 6.79 nM | EC50 [2]: 4.17 nM
